Experimental data published in patent US20080075628A1, “STERILIZED MINOCYCLINE AND RIFAMPIN-CONTAINING MEDICAL DEVICE” (MEDTRONIC, INC., priority 2006, published 2008).
“And” between values parts separate entries of the source, which are not always exact repeats. Equal values may be shown once. Read-outs that look alike come from different tables or passages of the source. Blank lines part the entries; values can stand above or below the molecule they belong to.

Conditions: for Recoverable rifampin after sterilization, Post EtO % / Recoverable rifampin after sterilization, Post e-beam % / Recoverable rifampin after sterilization, Post gamma % / Recoverable rifampin after sterilization, Post Steam %: relative to pre-sterilization (100%)
Protocol: Materials and Methods: Minocycline and rifampin were incorporated into discs, sheet stock and silicone boots and subjected to Steam, EtO, gamma radiation and e-beam sterilization as follows:
Each boot was cut into pieces (24) with scissors. The pieces were extracted together in a 60-125 ml jar w/top. All the pieces were placed in jar, and 4:1 THF/ethanol (50 mL for thick boots; 15 mL for thin boots) was added. The pieces were allowed to swell, and the drug is extracted for 1 hour (1st extraction). The extract was then collected and transferred to a 25-100 mL volumetric flask. A second 4:1 THF/ethanol (50 mL for thick boots w/holes; 10 mL for thin boots with holes) extraction was added to the jar, and the transfer pipette was rinsed with this second extract and discarded. The pieces were allowed to swell, and the drug is extracted for 1 hour (2nd extraction). The extract was then collected and transferred to the 25-100 mL volumetric flask containing the first extract. A small amount of extra solvent was needed to make up to volume due to solvent lost to evaporation and polymer swell. This amount also served as a final rinse of both the polymer and the transfer pipette.
Extraction Process—Sheet Stock
Discs was cut from the sheet stock with a die press. The discs were extracted separate in a 1 oz jar w/top. 4:1 THF/ethanol (5 mL) was added. The pieces were allowed to swell, and the drug is extracted for 1 hour (1st extraction). The extract was then collected and transferred to a 10 mL volumetric flask. A second 4:1 THF/ethanol (5 mL) extraction was added to the jar, and the transfer pipette was rinsed with this second extract and discarded. The pieces were allowed to swell, and the drug is extracted for 1 hour. (2nd extraction). The extract was then collected and transferred to the 10 mL volumetric flask containing the first extract. A small amount of extra solvent was needed to make up to 10 mL due to solvent lost to evaporation and polymer swell. This amount also served as a final rinse of both the polymer and the transfer pipette.
After extraction with THF/ethanol 4:1, extract was transferred to an HPLC vial and injected directly. The following high performance liquid chromatography (HPLC) method was used:
1. Chromatographic Conditions: • Instrument: Agilent 1100 stack • Column: Prodigy analytical column (150×4.6 mm) • Detection mode: UV detection at 238 nm • Flow rate: 1.0 mL/min • Column temperature: 25° C. • Injection volume: 10 uL • Mobile phase A: 1.4 g/L dibasic sodium phosphate buffer pH 6.8 • Mobile phase B: ACN 100%

Recoverable minocycline remaining after sterilization, Post Steam %: 0% | minocycline remaining with EtO sterilization: 86.8-100%
SMILES: CN(C)c1ccc(O)c2c1C[C@H]1C[C@H]3[C@H](N(C)C)C(O)=C(C(N)=O)C(=O)[C@@]3(O)C(O)=C1C2=O [minocycline]

SMILES: CO[C@H]1/C=C/O[C@@]2(C)Oc3c(C)c(O)c4c(O)c(c(/C=N/N5CCN(C)CC5)c(O)c4c3C2=O)NC(=O)/C(C)=C\C=C\[C@H](C)[C@H](O)[C@@H](C)[C@@H](O)[C@@H](C)[C@H](OC(C)=O)[C@@H]1C [rifampin]
rifampin remaining with EtO sterilization: 46.0-77.5% | Recoverable rifampin after sterilization, Post EtO % (medium 4735–0.005″ Sheet stock): 46.0% | Recoverable rifampin after sterilization, Post EtO % (medium 4735–0.015″ Sheet stock): 72.0% | Recoverable rifampin after sterilization, Post EtO % (medium 4850–0.005″ Boot): 65.4% | Recoverable rifampin after sterilization, Post EtO % (medium 4850–0.005″ Sheet Stock): 74.1% and 59.1% | Recoverable rifampin after sterilization, Post EtO % (medium 4850–0.015″ Boot): 77.5% | Recoverable rifampin after sterilization, Post EtO % (medium 4850–0.015″ Sheet Stock): 71.6% | Recoverable rifampin after sterilization, Post e-beam % (e-beam, medium 4735–0.015″ Boot): 90.2% | Recoverable rifampin after sterilization, Post e-beam % (e-beam, medium 4735–0.015″ Sheet stock): 95.1% and 92.4% | incorporated rifampin recovered after e-beam sterilization (e-beam, sheet stock, range): 92.4-95.1% | incorporated rifampin recovered after ethylene oxide sterilization (ethylene oxide, sheet stock incorporating minocycline and rifampin, range over the media tested): 46.0-74.1% | Recoverable rifampin after sterilization, Post gamma % (gamma radiation, medium 4735–0.005″ Sheet stock): 81.4% | Recoverable rifampin after sterilization, Post gamma % (gamma radiation, medium 4735–0.015″ Sheet stock): 82.8% and 88.6% | Recoverable rifampin after sterilization, Post gamma % (gamma radiation, medium 4850–0.005″ Sheet Stock): 71.5% | Recoverable rifampin after sterilization, Post gamma % (gamma radiation, medium 4850–0.015″ Sheet Stock): 78.4% | incorporated rifampin recovered after gamma radiation (gamma radiation, sheet stock, range over the media tested): 75.1-88.6% | Recoverable rifampin after sterilization, Post Steam % (steam sterilization, medium 4735–0.015″ Sheet stock): 34.3% | Recoverable rifampin after sterilization, Post Steam % (steam sterilization, medium 4850–0.005″ Sheet Stock): 19.5% | Recoverable rifampin after sterilization, Post Steam % (steam sterilization, medium 4850–0.015″ Sheet Stock): 28.3% | rifampin recoverable after steam sterilization (steam sterilization, silicone sheet stock, range over the media tested): 19.5 to 34.3%
